Like-named read-outs stand apart in the source and are kept apart here.
How the values were obtained:
LNCaP cells [1] = experiment: WST-1 cell proliferation assay, LNCaP; assay type: cell-based, human; settings: for IC50 (Silibinin)/IC50(Derivative) LNCaP: fold potency relative to silibinin; for IC50: WST-1, three days of exposure, mean ± SD, n = 3
Method: (§1) The in vitro antiproliferative activities of six 7-O-substituted and 26 3-O-substituted silybin derivatives were evaluated using the WST-1 cell proliferation assay, according to the procedure as described in the Experimental Section in both androgen-sensitive (LNCaP) and androgen-insensitive (PC-3 and DU145) human prostate cancer cell lines. Silibinin and docetaxel were used as a positive control for comparison in the parallel experiments and the IC50 values calculated from the dose-response curves are summarized in Table 1. […] A three-carbon linker in 11 and 29, as well as a five-carbon linker in 31, 37 and 40, are beneficial to the potency.
(§2) All cell lines were initially purchased from American Type Culture Collection (ATCC^TM) (Manassas, VA, USA). The PC-3 and LNCaP prostate cancer cell lines were routinely cultured in RPIM-1640 medium supplemented with 10% FBS and 1% penicillin/streptomycin. The DU145 prostate cancer cells were routinely cultured in Eagle’s Minimum Essential Medium (EMEM) supplemented with 10% FBS and 1% penicillin/streptomycin. Cultures were maintained in a high humidity environment supplemented with 5% carbon dioxide at a temperature of 37 °C.
(§3) PC-3, DU145, or LNCaP cells were plated in 96-well plates at a density of 3,200 per well in 200 µL of culture medium. The cells were then separately treated with silibinin, or synthesized silibinin derivatives, at five different doses for three days, while equal treatment volumes of DMSO (0.25%) were used as the vehicle control. The cells were cultured in a CO2 incubator at 37 °C for three days. A total of 10 µL of the premixed WST-1 cell proliferation reagent (Clontech) was added to each well. After mixing gently for one min on an orbital shaker, the cells were incubated for an additional 3 h at 37 °C. To ensure a homogeneous distribution of color, it is important to mix gently on an orbital shaker for one min. The absorbance of each well was measured using a microplate reader (Synergy HT, BioTek, Winooski, VT, USA) at a wavelength of 430 nm. […] For calculating the IC50 values, a linear proliferative inhibition was made based on at least five dosages for each compound.

PC-3 cells [2] = experiment: WST-1 cell proliferation assay, PC-3; assay type: cell-based, human; settings: for IC50 (Silibinin)/IC50(Derivative) PC-3: fold potency relative to silibinin; for IC50: WST-1, three days of exposure, mean ± SD, n = 3
Method: as §1, §2, §3

LNCaP cells [3] = settings: WST-1, three days of exposure; cited from earlier work
DU145 cells [4] = experiment: WST-1 cell proliferation assay, DU145; assay type: cell-based, human; settings: for IC50 (Silibinin)/IC50(Derivative) DU145: fold potency relative to silibinin; for IC50: Homo sapiens, DU-145, 72 h, WST-1, three days of exposure, mean ± SD, n = 3
Method: as §1, §2, §3

DU145 cells [5] = settings: WST-1, three days of exposure; cited from earlier work
PC-3 cells [6] = settings: WST-1, three days of exposure; cited from earlier work
PC-3 cells [7] = experiment: Cell cycle analysis by flow cytometry (propidium iodide); assay type: cell-based, human; settings: 20 µM, 16 h; controls 55.7% (11), 36.2% (29), 33.1% (31, 37, 40)
Method: Silibinin can arrest the rat (H-7 and I-8) and human prostate cancer cell (LNCaP) cycle at the G1 phase, and cause G1 and G2-M PC-3 prostate cancer cell cycle arrest.
PC-3 cells were plated in 24-well plates at a density of 200,000 per well in 400 µL of culture medium. […] […] Both attached and floating cells were collected in a centrifuge tube by centrifugation at an rcf value of 450 g for 5 min. After discarding the supernatant, the collected cells were re-suspended with 500 µL 80% cold ethanol to fix them for 30 min in 4 °C. The fixed cells could be stored at −20 °C for one week. After fixation, the ethanol was removed after centrifuging and the cells were washed with PBS. The cells were then re-suspend with 100 μL of […] ribonuclease and were cultured at 37 °C for 30 min to degrade all RNA. The cells were stained with 200 μL of 50 μg/mLpropidium iodide stock solution for 30 min at […], and then the fluorescence intensity of PI was detected in individual PC-3 cells using an Attune flow cytometer (Life Technologies, Carlsbad, CA, USA) within 0.5 to 1 h after staining.

PC-3 cells [8] = experiment: F2N12S and SYTOX AADvanced double staining apoptosis assay; assay type: cell-based, human; settings: for early phase apoptosis in PC-3 cells: 5 µM; for early phase apoptosis in PC-3 cells / early apoptotic cells / late apoptotic/necrotic cells / maximum apoptotic cell population / apoptotic cell death: 16 h; for early phase apoptosis in PC-3 cells / early apoptotic cells / late apoptotic/necrotic cells: range over 11, 37, 40; for concentration at which the apoptotic cell population reached its maximum: PC-3, 16 h; for maximum apoptotic cell population: 50 µM; for apoptotic cell death: up to a 10 µM concentration
[9] = tested on: MCF 10A non-neoplastic human mammary epithelial cell line; experiment: WST-1 cell proliferation assay, MCF 10A non-neoplastic cells; assay type: cell-based; settings: for IC50: Homo sapiens, MCF-10A, 72 h, WST-1, three days of exposure, mean ± SD, n = 3
Method: (§4) Silibinin and five potent derivatives (11, 29, 31, 37, and 40) were selected for further evaluation against the MCF 10A non-neoplastic human mammary epithelial cell line and PWR-1E non-neoplastic human prostate epithelial cells.
as §3

[10] = tested on: PWR-1E non-neoplastic human prostate epithelial cells; experiment: WST-1 cell proliferation assay, PWR-1E non-neoplastic cells; assay type: cell-based; settings: for IC50: Homo sapiens, PWR-1E, 72 h, WST-1, three days of exposure, mean ± SD, n = 3
Method: as §4, §3

[11] = tested on: prostate cancer cell lines (LNCaP, PC-3 and DU145); experiment: WST-1 cell proliferation assay, three prostate cancer cell lines together; assay type: cell-based, human; settings: range for the five optimal derivatives over PC-3, DU145, LNCaP; for IC50: Homo sapiens
Text: As part of our ongoing silybin project, this study aims to introduce a basic nitrogen-containing group to 7-OH of 3,5,20-O-trimethyl-2,3-dehydrosilybin or 3-OH of 5,7,20-O-trimethyl-2,3-dehydrosilybin via an appropriate linker for in vitro evaluation as potential anti-prostate cancer agents. The synthetic approaches to 7-O-substituted-3,5,20-O-trimethyl-2,3-dehydrosilybins through a five-step procedure and to 3-O-substituted-5,7,20-O-trimethyl-2,3- dehydrosilybins via a four-step transformation have been developed. Thirty-two nitrogen-containing derivatives of silybin have been achieved through these synthetic methods for the evaluation of their antiproliferative activities towards both androgen-sensitive (LNCaP) and androgen-insensitive prostate cancer cell lines (PC-3 and DU145) using the WST-1 cell proliferation assay. […] All these five optimal derivatives can arrest the PC-3 cell cycle in the G0/G1 phase and promote PC-3 cell apoptosis.
as §3
In summary, six 7-O-aminoalkyl-3,5-20-O-trimethyl-2,3-dehydrosilybins and 26 3-O-aminoalkyl-5,7,20-O-trimethyl-2,3-dehydrosilybins have been successfully synthesized through a five-step and four-step sequence, respectively. The synthetic methods can be used for the general synthesis of 7-O-substituted-3,5,20-O-trimethyl-2,3-dehydrosilybins and 3-O-substituted-5,7,20-O- trimethyl-2,3-dehydrosilybins. The antiproliferative activities of the 32 derivatives against three prostate cancer cell lines have been evaluated using the WST-1 cell proliferation assay. […] All these five optimal derivatives can cause PC-3 cell accumulation in a G0/G1 phase by increasing the cell population in this phase at 16 h. Derivatives 11, 37, and 40 show a stronger ability than derivatives 29 and 31 in activating PC-3 cell apoptosis by inducing appreciable levels of apoptotic cell death at a 5 µM concentration after 16 h of treatment.

| SMILES | IC50 (Silibinin)/IC50(Derivative) LNCaP (LNCaP cells [1]) | IC50 (Silibinin)/IC50(Derivative) PC-3 (PC-3 cells [2]) | IC50 (Silibinin)/IC50(Derivative) DU145 (DU145 cells [4]) | PC-3 cell population in G0/G1 phase (PC-3 cells [7]) [%] | early phase apoptosis in PC-3 cells (PC-3 cells [8]) | early apoptotic cells (PC-3 cells [8]; 10 µM) | late apoptotic/necrotic cells (PC-3 cells [8]; 10 µM) | early apoptotic cells (PC-3 cells [8]; 20 µM) | late apoptotic/necrotic cells (PC-3 cells [8]; 20 µM) | concentration at which the apoptotic cell population reached its maximum (PC-3 cells [8]) [µM] | IC50 [9] [µM] | IC50 (LNCaP cells [1]; Homo sapiens, LNCaP, 72 h) [µM] | IC50 (LNCaP cells [1]) [µM] | IC50 (PC-3 cells [2]; Homo sapiens, PC-3, 72 h) [µM] | IC50 (PC-3 cells [2]) [µM] | IC50 (DU145 cells [4]) [µM] | IC50 [10] [µM] | IC50 [11] [µM] | fold improvement in potency compared to silibinin [11] | also measured |
| --- | --- | --- | --- | --- | --- | --- | --- | --- | --- | --- | --- | --- | --- | --- | --- | --- | --- | --- | --- | --- |
| CCOc1cc(O)c2c(=O)c(O)c(-c3ccc4c(c3)OC(c3ccc(O)c(OC)c3)C(CO)O4)oc2c1 (stereo not drawn) [Compound 3, 7-O-ethyl-2,3-dehydrosilybin, reference compound] | 17 | 22 | 12 |  |  |  |  |  |  |  |  |  |  |  |  |  |  |  |  | IC50 (LNCaP cells [3]): 2.58 ± 0.07 µM; IC50 (DU145 cells [5]): 7.59 ± 0.66 µM; IC50 (PC-3 cells [6]): 3.25 ± 0.31 µM |
| COc1cc(OC)c2c(=O)c(OCCCCCN3CCOCC3)c(-c3ccc4c(c3)OC(c3ccc(OC)c(OC)c3)C(CO)O4)oc2c1 (stereo not drawn) [Compound 40] |  |  |  | 43.4 | 26–59% | 56–76% | 6–40% | 54–75% | 16–44% | 30 | < 5 | ≤ 3 | 2.23 ± 0.18 | ≤ 3 | 2.72 ± 0.08 | 3.06 ± 0.13 | < 5 | 1.4 to 3.06 | 17- to 52 fold |  |
| CCCCN(CCCC)CCCCCOc1c(-c2ccc3c(c2)OC(c2ccc(OC)c(OC)c2)C(CO)O3)oc2cc(OC)cc(OC)c2c1=O (stereo not drawn) [Compound 31] |  |  |  | 35.9 |  |  |  |  |  |  | < 5 | ≤ 3 | 2.51 ± 0.31 | ≤ 3 | 2.84 ± 0.1 | 2.85 ± 0.23 | < 5 | 1.4 to 3.06 | 17- to 52 fold | maximum apoptotic cell population (PC-3 cells [8]): 95%; apoptotic cell death (PC-3 cells [8]): less than 10% |
| CCCCN(CCCC)CCCOc1c(-c2ccc3c(c2)OC(c2ccc(OC)c(OC)c2)C(CO)O3)oc2cc(OC)cc(OC)c2c1=O (stereo not drawn) [Compound 29] |  |  |  | 50.3 |  |  |  |  |  |  | < 5 | ≤ 3 | 2.21 ± 0.17 | ≤ 3 | 2.73 ± 0.12 | 2.51 ± 0.04 | < 5 | 1.4 to 3.06 | 17- to 52 fold | maximum apoptotic cell population (PC-3 cells [8]): 71%; apoptotic cell death (PC-3 cells [8]): less than 10% |
| COc1cc(OC)c2c(=O)c(OCCCCCN3CCCCC3)c(-c3ccc4c(c3)OC(c3ccc(OC)c(OC)c3)C(CO)O4)oc2c1 (stereo not drawn) [Compound 37] |  |  |  | 34.6 | 26–59% | 56–76% | 6–40% | 54–75% | 16–44% | 10 | < 5 | ≤ 3 | 1.99 ± 0.23 | ≤ 3 | 2.71 ± 0.23 | 2.69 ± 0.03 | < 5 | 1.4 to 3.06 | 17- to 52 fold |  |
| CCCN(CCC)CCCOc1cc(OC)c2c(=O)c(OC)c(-c3ccc4c(c3)OC(c3ccc(OC)c(OC)c3)C(CO)O4)oc2c1 (stereo not drawn) [Compound 11] | 24 | 52 | 51 | 66.3 | 26–59% | 56–76% | 6–40% | 54–75% | 16–44% | 5 | > 50 | ≤ 3 | 1.82 ± 0.14 |  |  | 1.84 ± 0.14 | > 50 | 1.4 to 3.06 | 17- to 52 fold | antiproliferative activity towards MCF 10A ([9]; up to a 50 µM concentration): does not demonstrate apparent antiproliferative activity; antiproliferative activity towards PWR-1E ([10]; up to a 50 µM concentration): does not demonstrate apparent antiproliferative activity |
| COc1cc(C2Oc3cc(-c4oc5cc(O)cc(O)c5c(=O)c4O)ccc3OC2CO)ccc1O (stereo not drawn) [Compound 2, 2,3-dehydrosilybin] | 14 | 8 | 8 |  |  |  |  |  |  |  |  |  |  |  |  |  |  |  |  | IC50 (LNCaP cells [3]): 3.09 ± 1.3 µM; IC50 (DU145 cells [5]): 11.5 ± 1.42 µM; IC50 (PC-3 cells [6]): 9.45 ± 0.56 µM |
| COc1cc(OC)c2c(=O)c(OCCCCCN3CCN(C)CC3)c(-c3ccc4c(c3)OC(c3ccc(OC)c(OC)c3)C(CO)O4)oc2c1 (stereo not drawn) [Compound 45] | 8 | 15 | 11 |  |  |  |  |  |  |  |  | 5.66 ± 0.44 |  | 4.72 ± 0.88 |  | 8.59 ± 2.23 |  |  |  |  |
| COc1cc(OC)c2c(=O)c(OCCCCN3CCCCC3)c(-c3ccc4c(c3)OC(c3ccc(OC)c(OC)c3)C(CO)O4)oc2c1 (stereo not drawn) [Compound 36] | 2 | 3 | 1 |  |  |  |  |  |  |  |  | 27.3 ± 5.42 |  | 24.1 ± 10.6 |  | 67 ± 13.7 |  |  |  |  |
| COc1cc(OC)c2c(=O)c(OCCCCN(C)C)c(-c3ccc4c(c3)OC(c3ccc(OC)c(OC)c3)C(CO)O4)oc2c1 (stereo not drawn) [Compound 21] | 9 | 14 | 9 |  |  |  |  |  |  |  |  | 5.13 ± 0.89 |  | 5.15 ± 2.13 |  | 9.97 ± 3.34 |  |  |  |  |

— publication PMC6320956, “O-Aminoalkyl-O-Trimethyl-2,3-Dehydrosilybins: Synthesis and In Vitro Effects Towards Prostate Cancer Cells” (Molecules, 2018)
